In patent US20230265151A1, “GIP/GLP1 CO-AGONIST COMPOUNDS” (priority 2020, published 2023):
Read-outs that look alike come from different tables or passages of the source.

Columns and labels:
[1] = target: T1, human GLP-1 receptor (hGLP-1R) (Homo sapiens, UniProt P43220); experiment: [125I]-GLP-1 binding, SPA with membranes of HEK293 cells expressing hGLP-1R; conditions: human GLP-1R; geometric mean (SEM, n); read-out: Binding Affinity Ki, nM (SEM, n) hGLP-1R
T1 construct: expressed in transfected cells; crude membranes

[2] = target: T2, human GIP receptor (hGIPR) (Homo sapiens, UniProt P48546); experiment: [125I]-GIP binding, SPA with membranes of CHO cells expressing hGIPR; conditions: human GIPR; geometric mean (SEM, n); read-out: Binding Affinity Ki, nM (SEM, n) hGIPR
T2 construct: expressed in transfected cells; crude membranes
T2 sequence (P48546 22-466): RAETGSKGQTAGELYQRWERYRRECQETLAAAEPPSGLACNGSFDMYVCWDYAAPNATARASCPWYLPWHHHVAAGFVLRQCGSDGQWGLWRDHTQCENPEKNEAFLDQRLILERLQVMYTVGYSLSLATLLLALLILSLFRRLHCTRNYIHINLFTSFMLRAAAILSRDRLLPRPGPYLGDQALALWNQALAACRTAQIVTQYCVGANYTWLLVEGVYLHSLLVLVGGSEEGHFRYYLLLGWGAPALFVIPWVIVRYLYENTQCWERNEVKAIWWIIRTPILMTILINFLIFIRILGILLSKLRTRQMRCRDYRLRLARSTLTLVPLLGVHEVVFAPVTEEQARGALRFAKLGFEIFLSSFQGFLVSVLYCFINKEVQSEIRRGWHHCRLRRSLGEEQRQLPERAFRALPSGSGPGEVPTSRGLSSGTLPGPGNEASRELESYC

[3] = target: T3, hGIPR (Homo sapiens, UniProt P48546); experiment: Functional cAMP formation (HTRF) in HEK-293 clonal cells expressing hGIPR, 0.1% bovine casein, without or with 1.0% human serum albumin; format: cell-based; conditions: 37° C.; for Emax: percent of maximal response to GIP(1-42)NH2, read-out: hGIPR Emax, % ± SEM
T3 construct: expressed in transfected cells
T3 sequence (P48546 22-466): T2 sequence (P48546 22-466)
Outline: (§1)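 Cells were stimulated with peptide for 30 min at 37° C, then intracellular cAMP was measured by competitive HTRF (665/620 nm ratio) and converted to nM using a cAMP standard curve. Relative EC50 and Emax came from four-parameter logistic fits of percent maximal response against peptide concentration.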

[4] = target: T4, hGCGR (Homo sapiens, UniProt P47871); experiment: Functional cAMP formation (HTRF) in HEK-293 clonal cells expressing hGCGR, 0.1% bovine casein, without or with 1.0% human serum albumin; format: cell-based; conditions: read-out: hGCGR EC50, nM (SEM, n)
T4 construct: expressed in transfected cells
Outline: as §1

[5] = target: hGLP-1R (Homo sapiens, UniProt P43220); experiment: Functional cAMP formation (HTRF) in HEK-293 clonal cells expressing hGLP-1R, 0.1% bovine casein, without or with 1.0% human serum albumin; format: cell-based; design: expressed in transfected cells; conditions: read-out: hGLP-1R EC50, nM (SEM, n)
Outline: as §1

[6] = cAMP, 37° C., 0.1% bovine casein (no human serum albumin), geometric mean
[7] = cAMP, 37° C., 0.1% bovine casein and 1.0% human serum albumin, geometric mean (SEM, n)
[8] = 0.1% bovine casein and 1.0% human serum albumin, 37° C., geometric mean
[9] = cAMP, incubated at 37° C., 0.1% bovine casein (no human serum albumin), geometric mean

T4 sequence (P47871 26-477): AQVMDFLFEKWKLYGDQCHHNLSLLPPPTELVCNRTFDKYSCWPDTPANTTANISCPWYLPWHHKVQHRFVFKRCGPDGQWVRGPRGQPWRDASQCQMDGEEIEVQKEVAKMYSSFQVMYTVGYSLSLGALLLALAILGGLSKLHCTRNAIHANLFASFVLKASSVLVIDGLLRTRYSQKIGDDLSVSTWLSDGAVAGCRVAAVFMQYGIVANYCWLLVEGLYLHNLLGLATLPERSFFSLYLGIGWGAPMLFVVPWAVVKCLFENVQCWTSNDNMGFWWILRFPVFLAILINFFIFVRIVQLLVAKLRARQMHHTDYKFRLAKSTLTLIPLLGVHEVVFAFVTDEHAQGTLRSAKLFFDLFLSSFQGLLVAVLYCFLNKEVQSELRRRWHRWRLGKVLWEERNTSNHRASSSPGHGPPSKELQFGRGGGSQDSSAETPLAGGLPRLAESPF
Chain of hGLP-1R (P43220 24-463): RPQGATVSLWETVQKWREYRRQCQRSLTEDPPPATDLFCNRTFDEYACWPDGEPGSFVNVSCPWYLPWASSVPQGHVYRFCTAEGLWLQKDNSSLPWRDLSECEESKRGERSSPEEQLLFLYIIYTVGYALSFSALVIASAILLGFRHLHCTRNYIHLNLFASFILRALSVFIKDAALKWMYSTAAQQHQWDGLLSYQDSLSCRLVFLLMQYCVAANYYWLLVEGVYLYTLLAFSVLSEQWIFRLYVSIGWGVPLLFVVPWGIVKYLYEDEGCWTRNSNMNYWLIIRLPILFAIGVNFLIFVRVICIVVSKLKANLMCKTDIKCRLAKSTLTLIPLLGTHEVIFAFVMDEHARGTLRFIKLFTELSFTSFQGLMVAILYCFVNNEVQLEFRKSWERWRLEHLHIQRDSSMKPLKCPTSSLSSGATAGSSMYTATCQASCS
T1 sequence (P43220 24-463): as above

| SMILES | Ki [1] [nM] | Ki [2] [nM] | Emax ([3]; HEK293, cAMP, 0.1% bovine casein and 1.0% human serum albumin) [%] | EC50 ([3]; cAMP, 0.1% bovine casein (no human serum albumin), geometric mean, read-out: hGIPR EC50, nM (SEM, n)) [nM] | EC50 [4, 6] [nM] | EC50 [4, 7] [nM] | EC50 [5, 6] [nM] | EC50 [5, 7] [nM] | Emax ([3]; HEK293, 0.1% bovine casein and 1.0% human serum albumin) [%] | EC50 [4, 8] [nM] | EC50 [4, 9] [nM] | EC50 [5, 8] [nM] | EC50 [5, 9] [nM] |
| --- | --- | --- | --- | --- | --- | --- | --- | --- | --- | --- | --- | --- | --- |
| CCCCCCCCCCCC(=O)N[C@@H](CCC(=O)NCCOCCOCC(=O)NCCOCCOCC(=O)NCCOCCOCC(=O)NCCCC[C@H](NC(=O)[C@H](CCCN)NC(=O)[C@H](CC(=O)O)NC(=O)[C@H](CC(C)C)NC(=O)[C@](C)(CC(C)C)NC(=O)[C@@H](NC(=O)C(C)(C)NC(=O)[C@H](CCCCNC(=O)COCCOCCNC(=O)COCCOCCNC(=O)COCCOCCNC(=O)CC[C@H](NC(=O)CCCCCCCCCCC)C(=O)O)NC(=O)[C@H](CC(=O)O)NC(=O)[C@H](CO)NC(=O)[C@@H](NC(=O)[C@](C)(Cc1ccccc1F)NC(=O)[C@@H](NC(=O)CNC(=O)[C@H](CCC(=O)O)NC(=O)C(C)(C)NC(=O)[C@@H](N)Cc1ccc(O)cc1)[C@@H](C)O)[C@@H](C)O)[C@@H](C)CC)C(=O)N[C@@H](C)C(=O)N[C@@H](CCC(N)=O)C(=O)NC(C)(C)C(=O)N[C@@H](CCCN)C(=O)N[C@@H](Cc1ccccc1)C(=O)N[C@H](C(=O)N[C@H](CCC(=O)O)C(=O)N[C@@](C)(Cc1ccc(O)cc1)C(=O)N[C@@H](CC(C)C)C(=O)N[C@H](C(=O)N[C@@H](CCC(=O)O)C(=O)NCC(=O)NCC(=O)N1CCC[C@H]1C(=O)N[C@@H](CO)C(=O)N[C@@H](CO)C(=O)NCC(=O)N[C@@H](C)C(=O)N1CCC[C@H]1C(=O)N1CCC[C@H]1C(=O)N1CCC[C@H]1C(=O)N[C@@H](CO)C(N)=O)[C@@H](C)CC)[C@@H](C)CC)C(=O)O [Example 432] | 0.134 | 0.0134 | 96.7 | 0.00602 | > 9950 | > 9950 | 0.0549 | 1.28 |  |  |  |  |  |
| CCCCCCCCCCCCCCCC(=O)N[C@@H](CCC(=O)NCCOCCOCC(=O)NCCOCCOCC(=O)NCCCC[C@H](NC(=O)[C@H](CCCN)NC(=O)[C@H](CC(=O)O)NC(=O)[C@H](CC(C)C)NC(=O)[C@](C)(CC(C)C)NC(=O)[C@@H](NC(=O)[C@H](CO)NC(=O)[C@H](Cc1ccncc1)NC(=O)[C@H](CC(=O)O)NC(=O)[C@H](CO)NC(=O)[C@@H](NC(=O)[C@](C)(Cc1ccccc1F)NC(=O)[C@@H](NC(=O)CNC(=O)[C@H](CCC(=O)O)NC(=O)C(C)(C)NC(=O)[C@@H](N)Cc1ccc(O)cc1)[C@@H](C)O)[C@@H](C)O)[C@@H](C)CC)C(=O)N[C@@H](C)C(=O)N[C@@H](CCC(N)=O)C(=O)NC(C)(C)C(=O)N[C@@H](CCC(=O)O)C(=O)N[C@@H](Cc1ccccc1)C(=O)N[C@H](C(=O)N[C@H](CCC(=O)O)C(=O)N[C@@](C)(Cc1ccc(O)cc1)C(=O)N[C@@H](CC(C)C)C(=O)N[C@H](C(=O)N[C@@H](CCC(=O)O)C(=O)NCC(=O)N[C@@H](CCCCNC(=O)COCCOCCNC(=O)COCCOCCNC(=O)CC[C@H](NC(=O)CCCCCCCCCCCCCCC)C(=O)O)C(=O)N1CCC[C@H]1C(=O)N[C@@H](CO)C(=O)N[C@@H](CO)C(=O)NCC(=O)N[C@@H](C)C(=O)N1CCC[C@H]1C(=O)N1CCC[C@H]1C(=O)N1CCC[C@H]1C(=O)N[C@@H](CO)C(N)=O)[C@@H](C)CC)[C@@H](C)CC)C(=O)O [Example 24] | 0.52 | 0.0361 |  |  |  |  |  |  | 92.4 ± 5.97 | > 9950 | > 9950 | 2.04 | 0.0063 |
